These results are taken from patent US11186599B2, “Phosphonamide ester compound, salt thereof, related crystal form thereof, preparation method therefor and use thereof” (SICHUAN KELUN-BIOTECH BIOPHARMACEUTICAL CO., LTD., priority 2018, dated 2021).

Series [1] can be described thus: Physicochemical stability test, placed open at 40° C./75% RH. The following applies: placed open 14 days at 40° C./75% RH. As for the experimental part:
An appropriate amount of crystalline form A of the fumarate salt of the compound of Formula (I) of the invention was detected for the physicochemical stability thereof under the following conditions: placed open for 14 days at 40° C./75% RH. XRPD and LC-MS analysis were then carried out to determine the crystalline form and the change in purity.

A short description of series [2]: Solubility determination (shaking 24 hours, HPLC). The series is classed as physicochemical. The following applies: for solubility at 24 h: thermodynamic from solid, shaking 24 hours. As for the experimental part:
An aqueous solution of pH 2.0 (the pH was adjusted with an appropriate amount of hydrochloric acid), an aqueous solution of pH 7.4 (the pH was adjusted with 10 mM potassium dihydrogen phosphate and an appropriate amount of NaOH), and a fasted-state simulated intestinal fluid (FaSSIF) were prepared as solvents, respectively. Several portions of the sample for test, 1 mg each, were weighed and dissolved in different solvents, 1 mL each. The solutions were thoroughly shaked, and then subjected to ultrasonic operation for 5 minutes. […] After shaking in a constant temperature shaking water bath for 24 hours, filtration was carried out through a 0.45 uM aqueous filter membrane, followed by HPLC analysis for determination of the solubility.

Series [3] is described as follows: Hygroscopicity test by dynamic vapor sorption (DVS). The series is classed as physicochemical. The following applies: 25° C. As for the experimental part:
The hygroscopicity of crystalline forms A and B of the fumarate salt was measured by dynamic vapor sorption (DVS) using a DVS Intrinsic (SMS) at 25° C. in a cycle-DMDT mode.

Series [4] can be described thus: Pharmacokinetic experiment in beagle dogs. Type of series: in vivo. The following applies: 2.5 mg/kg, capsules intragastrically. As for the experimental part:
The crystalline forms A and C of the fumarate salt of the compound of Formula (I) were encapsulated into capsules and administered intragastrically to beagle dogs at a dose of 2.5 mg/kg. Venous blood was collected at different time points after administration and separately subjected to the detection of the original free base form of the compound of Formula (I) and its metabolite tenofovir (TFV).

For series [5] the following is noted: phase III clinical trial, cited from earlier work.
The mark [6] stands for this setting: beagle, dog, venous blood, po, analyte: free base of the compound of Formula (I).
[7] abbreviates: analyte: free base of the compound of Formula (I), listed as crystalline form A of the fumarate salt.
The mark [8] stands for this setting: analyte: free base of the compound of Formula (I), listed as crystalline form C of the fumarate salt.

Each structure is given as a SMILES string. ≈ marks a conversion by molar mass, not a printed value. Where two headings read alike, the source gives them in different places.

On to `C[C@H](Cn1cnc2c(N)ncnc21)OC[P@@](=O)(NCCOCc1ccccc1)Oc1ccccc1` [listing 1 of 3 here], for which, in series [1] (LC-MS), the “Relative purity after storage” value was “up to 99%”. Also, the “Change after storage (crystalline form and purity, in words)” value in series [1] (XRPD and LC-MS) was “without significant change”. Moreover, the solubility (in general, the dissolved amount per volume that the medium holds) at 24 h is 1000 µg/mL (≈ 2010 µM) in series [2] (aqueous solution of pH 2.0, simulated gastric fluid, aqueous solution pH 2.0 (hydrochloric acid), read-out: Solubility, H2O (pH 2.0)); 990 µg/mL (≈ 1990 µM) in series [2] (aqueous solution of pH 7.4, aqueous buffer, aqueous solution pH 7.4 (10 mM potassium dihydrogen phosphate/NaOH), read-out: Solubility, H2O (pH 7.4)); 910 µg/mL (≈ 1830 µM) in series [2] (fasted-state simulated intestinal fluid (FaSSIF), FaSSIF, read-out: Solubility, fasted-state simulated intestinal fluid (FaSSIF)). Further, in series [2] (water and fasted-state intestinal fluid), the “Solubility (in words)” value is “good solubility”. Also, the “Hygroscopicity (in words)” value in series [3] (DVS) is given as “little or no hygroscopicity”. In addition, the “Mass change caused by moisture absorption (%)” value (from here on “Mass change caused … (%)”) in series [3] (target humidity 0%) was 0%; in series [3] (target humidity 10%) it was 0.019%; in series [3] (target humidity 20%, listed as crystalline form A of the fumarate salt), 0.04%; in series [3] (target humidity 30%), 0.057%; in series [3] (target humidity 40%), 0.078%; in series [3] (target humidity 50%) it was 0.096%. The “Mass change caused … (%)” value in series [3] (target humidity 60%) is 0.117%; in series [3] (target humidity 70%) it was 0.137%; in series [3] (target humidity 80%), “less than 0.2%”; in series [3] (target humidity 80%, listed as crystalline form A of the fumarate salt), 0.158%; in series [3] (target humidity 90%) it was “less than 0.2%”; in series [3] (target humidity 90%, listed as crystalline form A of the fumarate salt) it was 0.192%. Further, the AUC(0-inf) (commonly the area under the concentration-time curve extrapolated to infinity) in series [4] (setting [6]) came to 66.7 ng·h/mL. The AUC(0-t) (in general, the area under the concentration-time curve up to a stated or last time point) in series [4] (setting [6]) was determined as 66.2 ng·h/mL. Further, the half-life (commonly the time needed for the level to fall by half in the phase considered) in series [4] (setting [6]) is 33 min. In addition, the Cmax (in general, the maximum level reached in the sampled fluid or tissue) in series [4] (beagle, dog, venous blood, po, analyte: free base of the compound of Formula (I), read-out: Cmax) was determined as 67.4 ng/mL. The “Conversion to TFV (in words)” value in series [4] is “rapidly converted to TFV”. In series [4] (setting [7]), the MRTINF was 73.2 min. In series [4] (setting [7]), the Tmax (as a rule, the time at which the peak concentration occurs) is 41.4 min.

On to `C[C@H](Cn1cnc2c(N)ncnc21)OC[P@@](=O)(NCCOCc1ccccc1)Oc1ccccc1` [listing 2 of 3 here], for which, in series [3] (target humidity 20%), the “Mass change caused … (%)” value was found to be 0.2%.

For the compound `C[C@H](Cn1cnc2c(N)ncnc21)OC[P@@](=O)(NCCOCc1ccccc1)Oc1ccccc1` [listing 3 of 3 here], in series [4] (setting [8]), the AUCINF stood at 43.4 ng·h/mL, the AUClast was 41.7 ng·h/mL, the Cmax is 77.5 ng/mL and the MRTINF was determined as 33.6 min. Moreover, in series [4] (setting [8]), the T1/2 was determined as 17.4 min and the Tmax stood at 18.6 min.

As to `CC(C)OC(=O)[C@H](C)N[P@](=O)(CO[C@H](C)Cn1cnc2c(N)ncnc21)Oc1ccccc1` [TAF, Tenofovir alafenamide], in series [5] (patients), the ALT recovery rate entry is given as “lower than 80%”. Also, in series [5] (share of patients), the “Patients in whom glomerular filtration rate decreased by more than 25%” value is “more than 10%” and the “Patients in whom spinal bone mineral density (BMD) decreased by more than 5%” value is “more than 10%”.
